Measured values taken from the NIST ThermoML archive (doi:10.1021/je8004112).

Experiments:
[1] = Ring tensiometer
[2] = xn = mol fraction of the nth substance listed; conditions: Ring tensiometer

C1CCCCC1 [cyclohexane]
[1]
Conditions | surface tension liquid-gas [mN/m]
293.15 K | 25.06
298.15 K | 24.45
303.15 K | 23.87
308.15 K | 23.21
313.15 K | 22.71
318.15 K | 22.05
323.15 K | 21.45

C1CCCCC1 [cyclohexane] + OC1CCCCC1
[2], x1 = 1
Conditions | surface tension liquid-gas [mN/m]
293.15 K | 25.06
298.15 K | 24.45
303.15 K | 23.87
308.15 K | 23.21
313.15 K | 22.71
318.15 K | 22.05
323.15 K | 21.45

OC1CCCCC1 [cyclohexanol]
[1]
Conditions | surface tension liquid-gas [mN/m]
293.15 K | 33.15
298.15 K | 32.74
303.15 K | 32.35
308.15 K | 31.91
313.15 K | 31.58
318.15 K | 31.13
323.15 K | 30.78

OC1CCCCC1 [cyclohexanol] + C1CCCCC1
surface tension liquid-gas [mN/m], [2]
Conditions | x2 = 0 | x2 = 0.005 | x2 = 0.009 | x2 = 0.013 | x2 = 0.023 | x2 = 0.031 | x2 = 0.044 | x2 = 0.07
293.15 K | 33.15 | 31.44 | 30.93 | 30.73 | 30.42 | 30.26 | 30.12 | 29.62
298.15 K | 32.74 | 31 | 30.54 | 30.32 | 29.99 | 29.8 | 29.62 | 29.15
303.15 K | 32.35 | 30.55 | 30.17 | 29.88 | 29.57 | 29.38 | 29.16 | 28.65
308.15 K | 31.91 | 30.12 | 29.77 | 29.49 | 29.15 | 28.93 | 28.65 | 28.18
313.15 K | 31.58 | 29.73 | 29.4 | 29.06 | 28.76 | 28.48 | 28.26 | 27.75
318.15 K | 31.13 | 29.26 | 29 | 28.67 | 28.34 | 28.07 | 27.78 | 27.27
323.15 K | 30.78 | 28.88 | 28.63 | 28.3 | 27.91 | 27.66 | 27.35 | 26.82

OC1CCCCC1 [cyclohexanol] + CCCCCC
surface tension liquid-gas [mN/m], [2]
Conditions | x2 = 0 | x2 = 0.007 | x2 = 0.009 | x2 = 0.012 | x2 = 0.021 | x2 = 0.03 | x2 = 0.042 | x2 = 0.075
293.15 K | 33.15 | 31.87 | 31.64 | 31.5 | 31.11 | 30.5 | 30 | 28.85
298.15 K | 32.74 | 31.5 | 31.31 | 31.08 | 30.71 | 30.07 | 29.59 | 28.42
303.15 K | 32.35 | 31.13 | 30.96 | 30.7 | 30.33 | 29.67 | 29.15 | 27.96
308.15 K | 31.91 | 30.77 | 30.64 | 30.26 | 29.96 | 29.26 | 28.74 | 27.5
313.15 K | 31.58 | 30.42 | 30.31 | 29.88 | 29.55 | 28.85 | 28.33 | 27.06

OC1CCCCC1 [cyclohexanol] + CCCCCCC
surface tension liquid-gas [mN/m], [2]
Conditions | x2 = 0 | x2 = 0.011 | x2 = 0.014 | x2 = 0.02 | x2 = 0.025 | x2 = 0.033 | x2 = 0.037 | x2 = 0.061
293.15 K | 33.15 | 32.84 | 32.69 | 32.56 | 31.8 | 31.53 | 31.38 | 29.87
298.15 K | 32.74 | 32.47 | 32.29 | 32.2 | 31.48 | 31.17 | 31.01 | 29.54
303.15 K | 32.35 | 32.11 | 31.92 | 31.8 | 31.08 | 30.82 | 30.56 | 29.2
308.15 K | 31.91 | 31.78 | 31.55 | 31.39 | 30.74 | 30.44 | 30.14 | 28.83
313.15 K | 31.58 | 31.43 | 31.23 | 31.01 | 30.41 | 30.1 | 29.77 | 28.54
318.15 K | 31.13 | 31.07 | 30.85 | 30.57 | 30.07 | 29.76 | 29.39 | 28.23
323.15 K | 30.78 | 30.7 | 30.45 | 30.16 | 29.7 | 29.43 | 28.99 | 27.87

OC1CCCCC1 [cyclohexanol] + CCCCCCCCC
surface tension liquid-gas [mN/m], [2]
Conditions | x2 = 0 | x2 = 0.003 | x2 = 0.006 | x2 = 0.008 | x2 = 0.012 | x2 = 0.022 | x2 = 0.041 | x2 = 0.06
293.15 K | 33.15 | 32.91 | 32.7 | 32.65 | 32.24 | 31.79 | 30.67 | 29.88
298.15 K | 32.74 | 32.51 | 32.3 | 32.22 | 31.85 | 31.44 | 30.3 | 29.48
303.15 K | 32.35 | 32.11 | 31.84 | 31.78 | 31.49 | 31.09 | 29.91 | 29.11
308.15 K | 31.91 | 31.72 | 31.44 | 31.35 | 31.09 | 30.72 | 29.52 | 28.72
313.15 K | 31.58 | 31.36 | 31.08 | 30.94 | 30.75 | 30.38 | 29.17 | 28.37
318.15 K | 31.13 | 30.99 | 30.69 | 30.52 | 30.41 | 29.99 | 28.8 | 27.98
323.15 K | 30.78 | 30.54 | 30.3 | 30.07 | 30.02 | 29.62 | 28.41 | 27.56

OC1CCCCC1 [cyclohexanol] + CCCCCCCCCCCC
surface tension liquid-gas [mN/m], [2]
Conditions | x2 = 0 | x2 = 0.006 | x2 = 0.009 | x2 = 0.011 | x2 = 0.022 | x2 = 0.031 | x2 = 0.046 | x2 = 0.075
293.15 K | 33.15 | 31.7 | 31.11 | 30.68 | 30.22 | 29.81 | 29.14 | 27.16
298.15 K | 32.74 | 31.23 | 30.71 | 30.32 | 29.85 | 29.37 | 28.74 | 26.8
303.15 K | 32.35 | 30.78 | 30.28 | 29.99 | 29.46 | 28.87 | 28.35 | 26.47
308.15 K | 31.91 | 30.35 | 29.88 | 29.61 | 29.08 | 28.44 | 27.98 | 26.1
313.15 K | 31.58 | 29.92 | 29.49 | 29.25 | 28.72 | 28.01 | 27.58 | 25.76
318.15 K | 31.13 | 29.49 | 29.07 | 28.88 | 28.35 | 27.57 | 27.21 | 25.44
323.15 K | 30.78 | 29 | 28.69 | 28.5 | 27.99 | 27.13 | 26.83 | 25.09

CCCCCCCCCCCC [dodecane]
[1]
Conditions | surface tension liquid-gas [mN/m]
293.15 K | 24.28
298.15 K | 23.84
303.15 K | 23.38
308.15 K | 22.98
313.15 K | 22.56
318.15 K | 22.14
323.15 K | 21.71

CCCCCCCCCCCC [dodecane] + OC1CCCCC1
[2], x1 = 1
Conditions | surface tension liquid-gas [mN/m]
293.15 K | 24.28
298.15 K | 23.84
303.15 K | 23.38
308.15 K | 22.98
313.15 K | 22.56
318.15 K | 22.14
323.15 K | 21.71

CCCCCCC [heptane]
[1]
Conditions | surface tension liquid-gas [mN/m]
293.15 K | 20.05
298.15 K | 19.54
303.15 K | 19.1
308.15 K | 18.58
313.15 K | 18.08
318.15 K | 17.6
323.15 K | 17.06

CCCCCCC [heptane] + OC1CCCCC1
[2], x1 = 1
Conditions | surface tension liquid-gas [mN/m]
293.15 K | 20.05
298.15 K | 19.54
303.15 K | 19.1
308.15 K | 18.58
313.15 K | 18.08
318.15 K | 17.6
323.15 K | 17.06

CCCCCC [hexane]
[1]
Conditions | surface tension liquid-gas [mN/m]
293.15 K | 18.56
298.15 K | 18.03
303.15 K | 17.44
308.15 K | 16.92
313.15 K | 16.38

CCCCCC [hexane] + OC1CCCCC1
[2], x1 = 1
Conditions | surface tension liquid-gas [mN/m]
293.15 K | 18.56
298.15 K | 18.03
303.15 K | 17.44
308.15 K | 16.92
313.15 K | 16.38

CCCCCCCCC [nonane]
[1]
Conditions | surface tension liquid-gas [mN/m]
293.15 K | 23.04
298.15 K | 22.49
303.15 K | 22.04
308.15 K | 21.49
313.15 K | 20.94
318.15 K | 20.47
323.15 K | 19.98

CCCCCCCCC [nonane] + OC1CCCCC1
[2], x1 = 1
Conditions | surface tension liquid-gas [mN/m]
293.15 K | 23.04
298.15 K | 22.49
303.15 K | 22.04
308.15 K | 21.49
313.15 K | 20.94
318.15 K | 20.47
323.15 K | 19.98
